According to patent US8003658B2, “Quinazoline derivatives for inhibiting cancer cell growth and method for the preparation thereof” (Hanmi Holdings Co., Ltd., priority 2004, dated 2011):
Like-named read-outs stand apart in the source and are kept apart here.

Experiments:
[1] = system: A431 (ATCC: CRL-1555); assay: Test of cancer cell growth inhibition (SRB), A431; settings: read-out: IC50 A431
[2] = system: SK-Br3 (ATCC: HTB-30); assay: Test of cancer cell growth inhibition (SRB), SK-Br3; settings: read-out: IC50 SK-Br-3
[3] = EGFR overexpressed A431, 72 hours, SRB
[4] = Erb-B2 overexpressed SK-Br3, 72 hours, SRB

| Compound | IC50 ([1]; Homo sapiens, A-431, 72 h) [nM] | IC50 ([2]; Homo sapiens, SK-BR-3, 72 h) [nM] | IC50 [1, 3] [nM] | IC50 [2, 4] [nM] |
| --- | --- | --- | --- | --- |
| CC(C)(C)OC(=O)NCC(=O)Nc1ccc2ncnc(Nc3ccc(OCc4cccc(F)c4)c(Cl)c3)c2c1 [Example 1-5, ({4-[3-chloro-4-(3-fluoro-benzyloxy)-phenylamino]-quinazolin-6-ylcarbamoyl}-methyl)-carbamic acid t-butylester] | 408 | 359 | – | – |
| COCC(=O)N[C@@H](CCSC)C(=O)Nc1ccc2ncnc(Nc3ccc(OCc4cccc(F)c4)c(Cl)c3)c2c1 [Example 7-2, (2S)—N-{4-[3-chloro-4-(3-fluoro-benzyloxy)-phenylamino]-quinazolin-6-yl}-2-(2-methoxy-acetylamino)-4-methanesulfanyl-butyramide] | – | – | 740 | 261 |
| CSCC[C@H](NC(=O)CS(C)(=O)=O)C(=O)Nc1ccc2ncnc(Nc3ccc(OCc4cccc(F)c4)c(Cl)c3)c2c1 [Example 8, (2S)—N-{4-[3-chloro-4-(3-fluoro-benzyloxy)-phenylamino]-quinazolin-6-yl}-2-(2-methanesulfonyl-acetamino)-4-methanesulfanyl-butyramide] | – | – | 308 | 190 |
| COCC(=O)N[C@H](C(=O)Nc1ccc2ncnc(Nc3ccc(OCc4cccc(F)c4)c(Cl)c3)c2c1)c1ccccc1 [Example 11, (2S)—N-{4-[3-chloro-4-(3-fluoro-benzyloxy)-phenylamino]-quinazolin-6-yl}-2-(2-methoxy-acetylamino)-2-phenyl-acetamide] | 252 | 113 | – | – |
| CS(=O)(=O)CC(=O)N1CCCC1C(=O)Nc1ccc2ncnc(Nc3ccc(OCc4cccc(F)c4)c(Cl)c3)c2c1 (centres unmarked) [Example 17, 1-(2-methanesulfonyl-acetyl)-pyrrolidine-2-carboxylic acid {4-[3-chloro-4-(3-fluoro-benzyloxy)-phenylamino]-quinazolin-6-yl}-amide] | 713 | 182 | – | – |
| CC(C)(C)OC(=O)NCCC(=O)Nc1ccc2ncnc(Nc3ccc(OCc4cccc(F)c4)c(Cl)c3)c2c1 [Example 19, (2-{4-[3-chloro-4-(3-fluoro-benzyloxy)-phenylamino]-quinazolin-6-ylcarbamoyl}-ethyl)-carbamic acid t-butylester] | 335 | 427 | – | – |
| O=C(CCc1ccccc1)NCCC(=O)Nc1ccc2ncnc(Nc3ccc(OCc4cccc(F)c4)c(Cl)c3)c2c1 [Example 23, 3-phenyl-propionylic acid (2-{4-[3-chloro-4-(3-fluoro-benzyloxy)-phenylamino]-quinazolin-6-ylcarbamoyl}-ethyl)-amide] | – | – | 316 | 359 |
| O=C(C=Cc1ccccc1)NCCC(=O)Nc1ccc2ncnc(Nc3ccc(OCc4cccc(F)c4)c(Cl)c3)c2c1 [Example 26, N-(2-{4-[3-chloro-4-(3-fluoro-benzyloxy)-phenylamino]-quinazolin-6-ylcarbamoyl}-ethyl)-3-phenyl-acrylamide] | 801 | 872 | – | – |
| Cc1cc(C(=O)NCCC(=O)Nc2ccc3ncnc(Nc4ccc(OCc5cccc(F)c5)c(Cl)c4)c3c2)on1 [Example 32, 3-methyl-isoxazol-5-carboxylic acid (2-{4-[3-chloro-4-(3-fluoro-benzyloxy)-phenylamino]-quinazolin-6-ylcarbamoyl}-ethyl)-amide] | 312 | 163 | – | – |
| O=C(CCNC(=O)C1CC1)Nc1ccc2ncnc(Nc3ccc(OCc4cccc(F)c4)c(Cl)c3)c2c1 [Example 37, cyclopropylcarboxylic acid (2-{4-[3-chloro-4-(3-fluoro-benzyloxy)-phenylamino]-quinazolin-6-ylcarbamoyl}-ethyl)-amide] | 137 | 160 | – | – |
| CC(CNC(=O)OC(C)(C)C)C(=O)Nc1ccc2ncnc(Nc3ccc(OCc4cccc(F)c4)c(Cl)c3)c2c1 (centres unmarked) [Example 41, (2-{4-[3-chloro-4-(3-fluoro-benzyloxy)-phenylamino]-quinazolin-6-ylcarbamoyl}-propyl)-carbamic acid t-butylester] | 936 | 172 | – | – |
| CC(CNC(=O)CS(C)(=O)=O)C(=O)Nc1ccc2ncnc(Nc3ccc(OCc4cccc(F)c4)c(Cl)c3)c2c1 (centres unmarked) [Example 43, N-{4-[3-chloro-4-(3-fluoro-benzyloxy)-phenylamino]-quinazolin-6-yl}-3-(2-methanesulfonyl-acetylamino)-2-methyl-propionamide] | 390 | 115 | – | – |
| COCC(=O)Nc1ccsc1C(=O)Nc1ccc2ncnc(Nc3ccc(OCc4cccc(F)c4)c(Cl)c3)c2c1 [Example 48, 3-(2-methoxy-acetylamino)-thiophene-2-carboxylic acid {4-[3-chloro-4-(3-fluoro-benzyloxy)-phenylamino]-quinazolin-6-yl}-amide] | 828 | 131 | – | – |
| Cc1ccc(Oc2ccc(Nc3ncnc4ccc(NC(=O)CCNC(=O)CS(C)(=O)=O)cc34)cc2C)cn1 [Example 50-2, 3-(2-methanesulfonyl-acetylamino)-N-{4-[3-methyl-4-(6-methyl-pyridin-3-yloxy)-phenylamino]-quinazolin-6-yl}-propionamide] | 845 | 99 | – | – |
| CS(=O)(=O)CC(=O)NCCC(=O)Nc1ccc2ncnc(Nc3ccc(F)c(Cl)c3)c2c1 [Example 53-2, N-[4-(3-chloro-4-fluoro-phenylamino)-quinazolin-6-yl]-3-(2-methanesulfonyl-acetylamino)-propionamide] | 124 | 258 | – | – |
| CN(C)CC=CC(=O)NCCC(=O)Nc1ccc2ncnc(Nc3ccc(OCc4cccc(F)c4)c(Cl)c3)c2c1 [Example 56, 4-dimethylamino-but-2-enonylic acid (2-{4-[3-chloro-4-(3-fluoro-benzyloxy)-phenylamino]-quinazolin-6-ylcarbamoyl}-ethyl)-amide] | – | – | 613 | 51 |
| O=C(C=CCN1CCOCC1)NCCC(=O)Nc1ccc2ncnc(Nc3ccc(OCc4cccc(F)c4)c(Cl)c3)c2c1 [Example 57, 4-morpholin-4-yl-but-2-enonylic acid (2-{4-[3-chloro-4-(3-fluoro-benzyloxy)-phenylamino]-quinazolin-6-ylcarbamoyl}-ethyl)-amide] | – | – | 625 | 43 |
| CN1CCN(CC(=O)NCCC(=O)Nc2ccc3ncnc(Nc4ccc(OCc5cccc(F)c5)c(Cl)c4)c3c2)CC1 [Example 64, N-{4-[3-chloro-4-(3-fluoro-benzyloxy)-phenylamino]-quinazolin-6-yl}-3-[2-(4-methyl-piperazin-1-yl)-acetylamino]-propionamide] | 698 | 212 | – | – |
| C=CC(=O)NCCCC(=O)Nc1ccc2ncnc(Nc3ccc(F)c(Cl)c3)c2c1 [Example 98, 4-acryloylamino-N-[4-(3-chloro-4-fluoro-phenylamino)-quinazolin-6-yl]-butyramide] | 79 | 184 | – | – |

Now from value to molecule:

| IC50 ([1]; Homo sapiens, A-431, 72 h) [nM] | IC50 ([2]; Homo sapiens, SK-BR-3, 72 h) [nM] | IC50 [1, 3] [nM] | IC50 [2, 4] [nM] | Compound |
| --- | --- | --- | --- | --- |
| 348 | 131 | – | – | O=C(CCNC(=O)c1ccoc1)Nc1ccc2ncnc(Nc3ccc(OCc4cccc(F)c4)c(Cl)c3)c2c1 [Example 33, furan-3-carboxylic acid (2-{4-[3-chloro-4-(3-fluoro-benzyloxy)-phenylamino]-quinazolin-6-ylcarbamoyl}-ethyl)-amide] |
| 896 | 141 | – | – | O=C(CCNC(=O)c1cn[nH]c1)Nc1ccc2ncnc(Nc3ccc(OCc4cccc(F)c4)c(Cl)c3)c2c1 [Example 34, 1H-pyrazol-4-carboxylic acid (2-{4-[3-chloro-4-(3-fluoro-benzyloxy)-phenylamino]-quinazolin-6-ylcarbamoyl}-ethyl)-amide] |
| 732 | 62 | – | – | CS(=O)(=O)CC(=O)NCCCC(=O)Nc1ccc2ncnc(Nc3ccc(OCc4cccc(F)c4)c(Cl)c3)c2c1 [Example 88, N-{4-[3-chloro-4-(3-fluoro-benzyloxy)-phenylamino]-quinazolin-6-yl}-4-(2-methanesulfonyl-acetylamino)-butyramide] |
| 423 | 628 | – | – | O=C(CCCNC(=O)c1ccccc1)Nc1ccc2ncnc(Nc3ccc(OCc4cccc(F)c4)c(Cl)c3)c2c1 [Example 90, N-(3-{4-[3-chloro-4-(3-fluoro-benzyloxy)-phenylamino]-quinazolin-6-ylcarbamoyl}-propyl)-benzamide] |
| 603 | 445 | – | – | CCOC(=O)C(=O)NCCCC(=O)Nc1ccc2ncnc(Nc3ccc(OCc4cccc(F)c4)c(Cl)c3)c2c1 [Example 91, N-(3-{4-[3-chloro-4-(3-fluoro-benzyloxy)-phenylamino]-quinazolin-6-ylcarbamoyl}-propyl)-oxalamic acid ethylester] |
| 293 | 80 | – | – | O=C(CCCNC(=O)C1CC1)Nc1ccc2ncnc(Nc3ccc(OCc4cccc(F)c4)c(Cl)c3)c2c1 [Example 92, cyclopropylcarboxylic acid (3-{4-[3-chloro-4-(3-fluoro-benzyloxy)-phenylamino]-quinazolin-6-ylcarbamoyl}-propyl)-amide] |
| 245 | 70 | – | – | O=C(CCCNC(=O)c1ccoc1)Nc1ccc2ncnc(Nc3ccc(OCc4cccc(F)c4)c(Cl)c3)c2c1 [Example 94, furan-3-carboxylic acid (3-{4-[3-chloro-4-(3-fluoro-benzyloxy)-phenylamino]-quinazolin-6-ylcarbamoyl}-propyl)-amide] |
| 994 | 331 | – | – | O=C(CCCNC(=O)c1cn[nH]c1)Nc1ccc2ncnc(Nc3ccc(OCc4cccc(F)c4)c(Cl)c3)c2c1 [Example 95, 1H-pyrazol-4-carboxylic acid (3-{4-[3-chloro-4-(3-fluoro-benzyloxy)-phenylamino]-quinazolin-6-ylcarbamoyl}-propyl)-amide] |
| 359 | 48 | – | – | COCCNCC(=O)NCCCC(=O)Nc1ccc2ncnc(Nc3ccc(OCc4cccc(F)c4)c(Cl)c3)c2c1 [Example 106, N-{4-[3-chloro-4-(3-fluoro-benzyloxy)-phenylamino]-quinazolin-6-yl}-4-[2-(2-methoxy-ethylamino)-acetylamino]-butyramide] |
